In data set [1] the test system is Bacteria. As to the kind of experiment: Inhibition of recombinant metallo-beta-lactamase L-1 (unknown origin) expressed in Escherichia coli BL21 (DE3) cells using cefazolin as substrate at 20 uM by spectrometric analysis relative to control.
For data set [2], the system named is Escherichia coli. Put plainly: Synergistic antibacterial activity against Escherichia coli BL21 (DE3) harboring NDM-1 assessed as fold decrease in meropenem MIC at 64 microg/ml measured after 16 hrs by CLSI protocol based broth microdilution method. In kind it is functional. To be noted: dose 64 µg/ml.
Data set [3] concerns Escherichia coli. Put plainly: Synergistic antibacterial activity against Escherichia coli BL21 (DE3) harboring serine beta lactamase KPC-2 assessed as fold decrease in meropenem MIC at 64 microg/ml measured after 16 hrs by CLSI protocol based broth microdilution method. Format: functional. To be noted: dose 64 µg/ml. Background: Broth dilution looks for growth in wells or tubes with falling amounts of substance.

For data set [4], the system named is Escherichia coli. As to the kind of experiment: Synergistic antibacterial activity against Escherichia coli BL21 (DE3) harboring NDM-1 assessed as meropenem MIC at 64 microg/ml measured after 16 hrs by CLSI protocol based broth microdilution method (reference value: 256 microg/ml). In kind it is functional. The settings on record: dose 64 µg/ml.
The nature of data set [5]: Inhibition of recombinant metallo-beta-lactamase IMP-1 (unknown origin) expressed in Escherichia coli BL21 (DE3) cells using meropenem as substrate by spectrometric analysis. On the set-up: species or system Bacteria.
Data set [6] relates to Bacteria. Put plainly: Inhibition of recombinant serine beta lactamase KPC-2 (unknown origin) expressed in Escherichia coli BL21 (DE3) cells using meropenem as substrate at 20 uM by spectrometric analysis relative to control.
Data set [7] concerns Bacteria. As to the kind of experiment: Inhibition of recombinant metallo-beta-lactamase IMP-1 (unknown origin) expressed in Escherichia coli BL21 (DE3) cells using cefazolin as substrate at 20 uM by spectrometric analysis relative to control.
The target in data set [8] is Metallo-beta-lactamase type 2 (Bacteria, UniProt C7C422). Put plainly: Inhibition of recombinant NDM-1 (unknown origin) expressed in Escherichia coli BL21 (DE3) cells using meropenem as substrate by spectrometric analysis.
Sequence of Metallo-beta-lactamase type 2 (C7C422 whole entry): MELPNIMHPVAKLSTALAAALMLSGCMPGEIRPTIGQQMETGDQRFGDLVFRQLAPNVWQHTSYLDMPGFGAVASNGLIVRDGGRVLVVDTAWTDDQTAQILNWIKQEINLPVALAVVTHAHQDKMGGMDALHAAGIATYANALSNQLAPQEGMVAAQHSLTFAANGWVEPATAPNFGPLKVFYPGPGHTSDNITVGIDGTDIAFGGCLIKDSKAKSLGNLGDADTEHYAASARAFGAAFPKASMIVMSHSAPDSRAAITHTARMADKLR
Data set [9] concerns Escherichia coli. As to the kind of experiment: Synergistic antibacterial activity against Escherichia coli BL21 (DE3) harboring serine beta lactamase OXA-48 assessed as meropenem MIC at 64 microg/ml measured after 16 hrs by CLSI protocol based broth microdilution method (reference value: 1 microg/ml). In kind it is functional. To be noted: dose 64 µg/ml.
The subject of data set [10] is Bacteria. Put plainly: Inhibition of recombinant serine beta lactamase OXA-48 (unknown origin) expressed in Escherichia coli BL21 (DE3) cells using meropenem as substrate at 20 uM by spectrometric analysis relative to control.
Data set [11] deals with Metallo-beta-lactamase type 2 (Bacteria) (UniProt C7C422). As to the kind of experiment: Inhibition of recombinant NDM-1 (unknown origin) expressed in Escherichia coli BL21 (DE3) cells using meropenem as substrate at 20 uM by spectrometric analysis relative to control.
Sequence of Metallo-beta-lactamase type 2 (Bacteria) (C7C422 whole entry): as above
Data set [12] has as its system Escherichia coli. Put plainly: Synergistic antibacterial activity against Escherichia coli BL21 (DE3) harboring serine beta lactamase KPC-2 assessed as meropenem MIC at 64 microg/ml measured after 16 hrs by CLSI protocol based broth microdilution method (reference value: 16 microg/ml). In kind it is functional. To be noted: dose 64 µg/ml.
Data set [13] concerns Escherichia coli. As to the kind of experiment: Synergistic antibacterial activity against Escherichia coli BL21 (DE3) harboring metallo-beta lactamase IMP-1 assessed as fold decrease in meropenem MIC at 64 microg/ml measured after 16 hrs by CLSI protocol based broth microdilution method. In kind it is functional. The settings on record: dose 64 µg/ml.
The subject of data set [14] is Escherichia coli. Put plainly: Synergistic antibacterial activity against Escherichia coli BL21 (DE3) harboring serine beta lactamase OXA-48 assessed as fold decrease in meropenem MIC at 64 microg/ml measured after 16 hrs by CLSI protocol based broth microdilution method. Format: functional. The settings on record: dose 64 µg/ml.
In data set [15] the test system is Escherichia coli. As to the kind of experiment: Synergistic antibacterial activity against Escherichia coli BL21 (DE3) harboring metallo-beta-lactamase IMP-1 assessed as meropenem MIC at 64 microg/ml measured after 16 hrs by CLSI protocol based broth microdilution method (reference value: 64 microg/ml). In kind it is functional. The settings on record: dose 64 µg/ml.

Data set [16] in a line: Inhibition of recombinant serine beta lactamase OXA-48 (unknown origin) expressed in Escherichia coli BL21 (DE3) cells using meropenem as substrate by spectrometric analysis. On the set-up: species or system Bacteria.
The nature of data set [17]: Inhibition of recombinant serine beta lactamase KPC-2 (unknown origin) expressed in Escherichia coli BL21 (DE3) cells using meropenem as substrate by spectrometric analysis. On the set-up: species or system Bacteria.
The test system of data set [18] is Bacteria. Put plainly: Inhibition of recombinant metallo-beta-lactamase ImiS (unknown origin) expressed in Escherichia coli BL21 (DE3) cells using meropenem as substrate at 20 uM by spectrometric analysis relative to control.
Data set [19] relates to Escherichia coli. As to the kind of experiment: Synergistic antibacterial activity against Escherichia coli BL21 (DE3) harboring NDM-1 assessed as decrease in bacterial colony at 128 microg/ml incubated for 12 hrs in presence of meropenem by imaging analysis. In kind it is functional, organism-based. To be noted: dose 128.0 µg/ml.
Data set [20] concerns Escherichia coli. As to the kind of experiment: Antibacterial activity against Escherichia coli harboring serine beta-lactamase OXA-48 infected in Kunming mouse model assessed as reduction in bacterial load in spleen at 20 mg/kg, ip. In kind it is functional, organism-based.
For data set [21], the system named is Escherichia coli. As to the kind of experiment: Synergistic antibacterial activity against Escherichia coli BL21 (DE3) harboring serine beta lactamase OXA-48 assessed as decrease in bacterial colony at 128 microg/ml incubated for 12 hrs in presence of meropenem by imaging analysis. In kind it is functional, organism-based. To be noted: dose 128.0 µg/ml.
The subject of data set [22] is Escherichia coli. As to the kind of experiment: Synergistic antibacterial activity against Escherichia coli clinical isolate 10 assessed as decrease in bacterial colony at 128 microg/ml incubated for 12 hrs in presence of meropenem by imaging analysis. Format: functional, organism-based. The settings on record: dose 128.0 µg/ml.
Data set [23] concerns Escherichia coli. Put plainly: Antibacterial activity against Escherichia coli harboring serine beta-lactamase OXA-48 infected in Kunming mouse model assessed as reduction in bacterial load in liver at 20 mg/kg, ip. In kind it is functional, organism-based.
Data set [24] deals with Escherichia coli. Put plainly: Synergistic antibacterial activity against Escherichia coli BL21 (DE3) harboring serine beta lactamase KPC-2 assessed as decrease in bacterial colony at 128 microg/ml incubated for 12 hrs in presence of meropenem by imaging analysis. In kind it is functional, organism-based. The settings on record: dose 128.0 µg/ml.
The subject of data set [25] is Escherichia coli. As to the kind of experiment: Synergistic antibacterial activity against Escherichia coli harboring serine beta-lactamase OXA-48 infected in Kunming mouse model assessed as reduction in bacterial load in liver at 20 mg/kg, ip co-administered with 1 mg/kg of meropenem. In kind it is functional, organism-based.
The nature of data set [26]: Cytotoxicity against mouse L929 cells assessed as cell viability upto 200 uM incubated for 48 hrs by CCK8 assay relative to control. The settings on record: read-out: Activity. Format: toxicity, cell-based. On the technique in general: Tetrazolium dyes change colour on reduction, which living cells bring about.
Data set [27] relates to Escherichia coli. Put plainly: Synergistic antibacterial activity against Escherichia coli BL21 (DE3) harboring metallo-beta-lactamase IMP-1 assessed as decrease in bacterial colony at 128 microg/ml incubated for 12 hrs in presence of meropenem by imaging analysis. Format: functional, organism-based. The settings on record: dose 128.0 µg/ml.

Molecules are shown by their SMILES. Calls of active or inactive are those of the source.

What is called inhibition is how much of the control response was suppressed. In general, MIC refers to the smallest concentration in the dilution series that meets the test's criterion for growth inhibition. One may read the IC50 as the concentration that gives 50% inhibition. Regarding `CCOC(=O)ONC(=O)CCCc1ccccc1`, the inhibition was less than 42% in the data set on Bacteria [1]; more than 90% with Bacteria [6]; more than 90% with Bacteria [7]; more than 90% with Bacteria [10]; more than 90% in data set [11]; less than 42% with Bacteria [18]. Moreover, the “fold change (FC)” value in the data set with Escherichia coli [2], with Escherichia coli [3], in the data set with Escherichia coli [13] and in the data set on Escherichia coli [14] was 2 throughout. Further, the MIC in the data set with Escherichia coli [4] stood at 64 µg/mL; in the data set with Escherichia coli [9] it was 0.5 µg/mL; in the data set with Escherichia coli [12], 4 µg/mL; in the data set with Escherichia coli [15], 16 µg/mL. Moreover, the IC50 turned out to be 2890 nM in data set [5], 990 nM in [8], 2880 nM in [16] and 980 nM in data set [17].
As for `CC(C)COC(=O)ONC(=O)CCC1CCCCC1`, the result in the data set with Escherichia coli [19], with Escherichia coli [21], in the data set with Escherichia coli [22], in the data set on Escherichia coli [24], with Escherichia coli [25] and with Escherichia coli [27] was Active. The figures for the “fold change (FC)” value in the data set on Escherichia coli [2], with Escherichia coli [13] and in the data set on Escherichia coli [14] were 2, 2 and 16, respectively. Further, the outcome in the data set with Escherichia coli [20] and with Escherichia coli [23] was inactive. Also, the MIC was found to be 64 µg/mL in the data set with Escherichia coli [4], 0.063 µg/mL in the data set on Escherichia coli [9], 16 µg/mL in the data set on Escherichia coli [12] and 32 µg/mL with Escherichia coli [15]. Moreover, the IC50 stood at 4490 nM in [5], 4730 nM in data set [8], 2050 nM in data set [16] and 690 nM in data set [17]. Also, the inhibition in the data set with Bacteria [6] and in the data set with Bacteria [10] was more than 90% in each case. The viability at 48 h, up to 200 µM in data set [26] is more than 80%.
Turning to `CCCCCOC(=O)ONC(=O)CCCc1ccccc1`, the inhibition in the data set with Bacteria [1] was less than 42%; in the data set on Bacteria [6], more than 90%; with Bacteria [7], more than 90%; in the data set with Bacteria [10] it was more than 90%; in [11], more than 90%; in the data set on Bacteria [18], less than 42%. Moreover, the “fold change (FC)” value in the data set with Escherichia coli [2], in the data set with Escherichia coli [3], in the data set with Escherichia coli [13] and in the data set on Escherichia coli [14] was 2 throughout. For the same compound, the MIC in the data set with Escherichia coli [4] worked out at 64 µg/mL; with Escherichia coli [9], 0.5 µg/mL; in the data set on Escherichia coli [12] it was 8 µg/mL; in the data set with Escherichia coli [15], 16 µg/mL. Besides, the IC50 came to 850 nM in data set [5], 1870 nM in data set [8], 1030 nM in data set [16] and 1470 nM in data set [17].

The values above are taken from ChEMBL document CHEMBL5518172, “Discovery of hydroxamate as a promising scaffold dually inhibiting metallo- and serine-β-lactamases” (Eur J Med Chem, 2024).
